Consider 16 molecules from ChEMBL document CHEMBL4376833, “Influence of Non-natural Cationic Amino Acids on the Biological Activity Profile of Innate Defense Regulator Peptides” (J Med Chem, 2019).

Active and inactive are the calls of the source. The rule behind the calls is not given here. Non-standard residues stand in square brackets, D forms with d. Residues, ends and D or L forms follow the SMILES beside them. hArg = N=C(N)NCCCC[C@H](N)C(=O)O; Agb = N=C(N)NCC[C@H](N)C(=O)O; Agp = N=C(N)NC[C@H](N)C(=O)O; Orn = NCCC[C@H](N)C(=O)O; Dab = NCC[C@H](N)C(=O)O; Dap = NC[C@H](N)C(=O)O

Assay [1] concerns Staphylococcus aureus. The assay is described as follows: Antibiofilm activity against methicillin-resistant Staphylococcus aureus assessed as inhibition of biofilm formation by measuring residual biofilm growth incubated for overnight at 10-fold dilution by crystal violet staining based microtiter plate assay relative to control. Format: functional.
In assay [2] the test system is Staphylococcus aureus. The assay is described as follows: Antibiofilm activity against methicillin-resistant Staphylococcus aureus assessed as inhibition of biofilm formation incubated for overnight by crystal violet staining based microtiter plate assay. Format: functional, organism-based.
Assay [3] deals with Staphylococcus aureus. As to the kind of experiment: Antibacterial activity against methicillin-resistant Staphylococcus aureus assessed as alteration in bacterial growth incubated for overnight by microtiter plate based spectrophotometric analysis. Format: functional, organism-based.

For the molecule `CC[C@H](C)[C@H](NC(=O)[C@H](CCCNC(=N)N)NC(=O)[C@H](CCNC(=N)N)NC(=O)[C@H](C)NC(=O)[C@@H](NC(=O)[C@@H](NC(=O)[C@H](CC(C)C)NC(=O)[C@H](CCCNC(=N)N)NC(=O)[C@@H](N)C(C)C)[C@@H](C)CC)C(C)C)C(=O)N[C@@H](Cc1c[nH]c2ccccc12)C(=O)N[C@@H](CCCNC(=N)N)C(=O)N[C@@H](CCCNC(=N)N)C(N)=O` (H-VRLIVA[Agb]RIWRR-NH2), in the assay with Staphylococcus aureus [1], the “residual biofilm growth (% of control)” value came to 104.1%. The inhibition entry with Staphylococcus aureus [2] was “Dose-dependent effect”. Besides, in the assay on Staphylococcus aureus [3], the outcome was Active.
Taken in the same sequence, the figures for `CC[C@H](C)[C@H](NC(=O)[C@H](CCCNC(=N)N)NC(=O)[C@H](CNC(=N)N)NC(=O)[C@H](C)NC(=O)[C@@H](NC(=O)[C@@H](NC(=O)[C@H](CC(C)C)NC(=O)[C@H](CCCNC(=N)N)NC(=O)[C@@H](N)C(C)C)[C@@H](C)CC)C(C)C)C(=O)N[C@@H](Cc1c[nH]c2ccccc12)C(=O)N[C@@H](CCCNC(=N)N)C(=O)N[C@@H](CCCNC(=N)N)C(N)=O` (H-VRLIVA[Agp]RIWRR-NH2) were 106.7%, “Dose-dependent effect” and “Active”.
For the molecule `CC[C@H](C)[C@H](NC(=O)[C@H](CCCNC(=N)N)NC(=O)[C@H](CCN)NC(=O)[C@H](C)NC(=O)[C@@H](NC(=O)[C@@H](NC(=O)[C@H](CC(C)C)NC(=O)[C@H](CCCNC(=N)N)NC(=O)[C@@H](N)C(C)C)[C@@H](C)CC)C(C)C)C(=O)N[C@@H](Cc1c[nH]c2ccccc12)C(=O)N[C@@H](CCCNC(=N)N)C(=O)N[C@@H](CCCNC(=N)N)C(N)=O` (H-VRLIVA[Dab]RIWRR-NH2), the “residual biofilm growth (% of control)” value in the assay on Staphylococcus aureus [1] is on record as 102.5%. Also, the inhibition entry in the assay with Staphylococcus aureus [2] was “Dose-dependent effect”. The outcome in the assay with Staphylococcus aureus [3] was Active.
The like results for `CC[C@H](C)[C@H](NC(=O)[C@H](CCCNC(=N)N)NC(=O)[C@H](CN)NC(=O)[C@H](C)NC(=O)[C@@H](NC(=O)[C@@H](NC(=O)[C@H](CC(C)C)NC(=O)[C@H](CCCNC(=N)N)NC(=O)[C@@H](N)C(C)C)[C@@H](C)CC)C(C)C)C(=O)N[C@@H](Cc1c[nH]c2ccccc12)C(=O)N[C@@H](CCCNC(=N)N)C(=O)N[C@@H](CCCNC(=N)N)C(N)=O` (H-VRLIVA[Dap]RIWRR-NH2) were, in that order, 102%, “Dose-dependent effect” and “Active”.
For `CC[C@H](C)[C@H](NC(=O)[C@H](CCCNC(=N)N)NC(=O)[C@H](CCCN)NC(=O)[C@H](C)NC(=O)[C@@H](NC(=O)[C@@H](NC(=O)[C@H](CC(C)C)NC(=O)[C@H](CCCNC(=N)N)NC(=O)[C@@H](N)C(C)C)[C@@H](C)CC)C(C)C)C(=O)N[C@@H](Cc1c[nH]c2ccccc12)C(=O)N[C@@H](CCCNC(=N)N)C(=O)N[C@@H](CCCNC(=N)N)C(N)=O` (H-VRLIVA[Orn]RIWRR-NH2), the “residual biofilm growth (% of control)” value in the assay with Staphylococcus aureus [1] is listed as 103%. Moreover, the inhibition entry in the assay on Staphylococcus aureus [2] is “Dose-dependent effect”. Also, in the assay on Staphylococcus aureus [3], the result was Active.
Taken in the same sequence, the figures for `CC[C@H](C)[C@H](NC(=O)[C@H](CCCNC(=N)N)NC(=O)[C@H](CCCCNC(=N)N)NC(=O)[C@H](C)NC(=O)[C@@H](NC(=O)[C@@H](NC(=O)[C@H](CC(C)C)NC(=O)[C@H](CCCNC(=N)N)NC(=O)[C@@H](N)C(C)C)[C@@H](C)CC)C(C)C)C(=O)N[C@@H](Cc1c[nH]c2ccccc12)C(=O)N[C@@H](CCCNC(=N)N)C(=O)N[C@@H](CCCNC(=N)N)C(N)=O` (H-VRLIVA[hArg]RIWRR-NH2) were 107%, “Dose-dependent effect” and “Active”.
The like results for `CC[C@H](C)[C@H](NC(=O)[C@H](CCCNC(=N)N)NC(=O)[C@@H](NC(=O)[C@H](CCNC(=N)N)NC(=O)[C@@H](NC(=O)[C@@H](NC(=O)[C@H](CC(C)C)NC(=O)[C@H](CCCNC(=N)N)NC(=O)[C@@H](N)C(C)C)[C@@H](C)CC)C(C)C)C(C)C)C(=O)N[C@@H](Cc1c[nH]c2ccccc12)C(=O)N[C@@H](CCCNC(=N)N)C(=O)N[C@@H](CCCNC(=N)N)C(N)=O` (H-VRLIV[Agb]VRIWRR-NH2) were, in that order, 105.9%, “Dose-dependent effect” and “Active”.
Turning to `CC[C@H](C)[C@H](NC(=O)[C@H](CCCNC(=N)N)NC(=O)[C@@H](NC(=O)[C@H](CNC(=N)N)NC(=O)[C@@H](NC(=O)[C@@H](NC(=O)[C@H](CC(C)C)NC(=O)[C@H](CCCNC(=N)N)NC(=O)[C@@H](N)C(C)C)[C@@H](C)CC)C(C)C)C(C)C)C(=O)N[C@@H](Cc1c[nH]c2ccccc12)C(=O)N[C@@H](CCCNC(=N)N)C(=O)N[C@@H](CCCNC(=N)N)C(N)=O` (H-VRLIV[Agp]VRIWRR-NH2), the “residual biofilm growth (% of control)” value in the assay on Staphylococcus aureus [1] is reported as 104.8%. For the same molecule, the inhibition entry in the assay on Staphylococcus aureus [2] was “Dose-dependent effect”. Further, the result in the assay with Staphylococcus aureus [3] was Active.
Take `CC[C@H](C)[C@H](NC(=O)[C@H](CCCNC(=N)N)NC(=O)[C@@H](NC(=O)[C@H](CCN)NC(=O)[C@@H](NC(=O)[C@@H](NC(=O)[C@H](CC(C)C)NC(=O)[C@H](CCCNC(=N)N)NC(=O)[C@@H](N)C(C)C)[C@@H](C)CC)C(C)C)C(C)C)C(=O)N[C@@H](Cc1c[nH]c2ccccc12)C(=O)N[C@@H](CCCNC(=N)N)C(=O)N[C@@H](CCCNC(=N)N)C(N)=O` (H-VRLIV[Dab]VRIWRR-NH2): the “residual biofilm growth (% of control)” value with Staphylococcus aureus [1] came out at 52.7%. For the same molecule, the inhibition entry in the assay with Staphylococcus aureus [2] is “Dose-dependent effect”. In the assay on Staphylococcus aureus [3], the outcome was Active.
The like results for `CC[C@H](C)[C@H](NC(=O)[C@H](CCCNC(=N)N)NC(=O)[C@@H](NC(=O)[C@H](CN)NC(=O)[C@@H](NC(=O)[C@@H](NC(=O)[C@H](CC(C)C)NC(=O)[C@H](CCCNC(=N)N)NC(=O)[C@@H](N)C(C)C)[C@@H](C)CC)C(C)C)C(C)C)C(=O)N[C@@H](Cc1c[nH]c2ccccc12)C(=O)N[C@@H](CCCNC(=N)N)C(=O)N[C@@H](CCCNC(=N)N)C(N)=O` (H-VRLIV[Dap]VRIWRR-NH2) were, in that order, 34.1%, “Dose-dependent effect” and “Active”.
Turning to `CC[C@H](C)[C@H](NC(=O)[C@H](CCCNC(=N)N)NC(=O)[C@@H](NC(=O)[C@H](CCCN)NC(=O)[C@@H](NC(=O)[C@@H](NC(=O)[C@H](CC(C)C)NC(=O)[C@H](CCCNC(=N)N)NC(=O)[C@@H](N)C(C)C)[C@@H](C)CC)C(C)C)C(C)C)C(=O)N[C@@H](Cc1c[nH]c2ccccc12)C(=O)N[C@@H](CCCNC(=N)N)C(=O)N[C@@H](CCCNC(=N)N)C(N)=O` (H-VRLIV[Orn]VRIWRR-NH2), the “residual biofilm growth (% of control)” value in the assay on Staphylococcus aureus [1] is 14.2%. Moreover, the inhibition result in the assay on Staphylococcus aureus [2] was “Dose-dependent effect”. For the same molecule, in the assay with Staphylococcus aureus [3], the outcome was Active.
As to `CC[C@H](C)[C@H](NC(=O)[C@H](CCCNC(=N)N)NC(=O)[C@@H](NC(=O)[C@H](CCCCNC(=N)N)NC(=O)[C@@H](NC(=O)[C@@H](NC(=O)[C@H](CC(C)C)NC(=O)[C@H](CCCNC(=N)N)NC(=O)[C@@H](N)C(C)C)[C@@H](C)CC)C(C)C)C(C)C)C(=O)N[C@@H](Cc1c[nH]c2ccccc12)C(=O)N[C@@H](CCCNC(=N)N)C(=O)N[C@@H](CCCNC(=N)N)C(N)=O` (H-VRLIV[hArg]VRIWRR-NH2), in the assay on Staphylococcus aureus [1], the “residual biofilm growth (% of control)” value worked out at 19.7%. For the same molecule, the inhibition entry in the assay with Staphylococcus aureus [2] is “Dose-dependent effect”. Also, the outcome in the assay on Staphylococcus aureus [3] was Active.
As for `CC[C@H](C)[C@H](NC(=O)[C@H](CC(C)C)NC(=O)[C@H](CCCNC(=N)N)NC(=O)[C@@H](N)C(C)C)C(=O)N[C@@H](CCNC(=N)N)C(=O)N[C@@H](C)C(=O)N[C@H](C(=O)N[C@@H](CCCNC(=N)N)C(=O)N[C@H](C(=O)N[C@@H](Cc1c[nH]c2ccccc12)C(=O)N[C@@H](CCCNC(=N)N)C(=O)N[C@@H](CCCNC(=N)N)C(N)=O)[C@@H](C)CC)C(C)C` (H-VRLI[Agb]AVRIWRR-NH2), the “residual biofilm growth (% of control)” value in the assay with Staphylococcus aureus [1] is on record as 103.2%. In the assay on Staphylococcus aureus [2], the inhibition entry is “Dose-dependent effect”. For the same molecule, the outcome in the assay with Staphylococcus aureus [3] was Active.
The like results for `CC[C@H](C)[C@H](NC(=O)[C@H](CC(C)C)NC(=O)[C@H](CCCNC(=N)N)NC(=O)[C@@H](N)C(C)C)C(=O)N[C@@H](CNC(=N)N)C(=O)N[C@@H](C)C(=O)N[C@H](C(=O)N[C@@H](CCCNC(=N)N)C(=O)N[C@H](C(=O)N[C@@H](Cc1c[nH]c2ccccc12)C(=O)N[C@@H](CCCNC(=N)N)C(=O)N[C@@H](CCCNC(=N)N)C(N)=O)[C@@H](C)CC)C(C)C` (H-VRLI[Agp]AVRIWRR-NH2) were, in that order, 99.9%, “Dose-dependent effect” and “Active”.
`CC[C@H](C)[C@H](NC(=O)[C@H](CC(C)C)NC(=O)[C@H](CCCNC(=N)N)NC(=O)[C@@H](N)C(C)C)C(=O)N[C@@H](CCN)C(=O)N[C@@H](C)C(=O)N[C@H](C(=O)N[C@@H](CCCNC(=N)N)C(=O)N[C@H](C(=O)N[C@@H](Cc1c[nH]c2ccccc12)C(=O)N[C@@H](CCCNC(=N)N)C(=O)N[C@@H](CCCNC(=N)N)C(N)=O)[C@@H](C)CC)C(C)C` (H-VRLI[Dab]AVRIWRR-NH2): the “residual biofilm growth (% of control)” value in the assay on Staphylococcus aureus [1] came out at 102.7%. Moreover, the inhibition entry in the assay on Staphylococcus aureus [2] is “Dose-dependent effect”. For the same molecule, the result in the assay on Staphylococcus aureus [3] was Active.
The like results for `CC[C@H](C)[C@H](NC(=O)[C@H](CC(C)C)NC(=O)[C@H](CCCNC(=N)N)NC(=O)[C@@H](N)C(C)C)C(=O)N[C@@H](CN)C(=O)N[C@@H](C)C(=O)N[C@H](C(=O)N[C@@H](CCCNC(=N)N)C(=O)N[C@H](C(=O)N[C@@H](Cc1c[nH]c2ccccc12)C(=O)N[C@@H](CCCNC(=N)N)C(=O)N[C@@H](CCCNC(=N)N)C(N)=O)[C@@H](C)CC)C(C)C` (H-VRLI[Dap]AVRIWRR-NH2) were, in that order, 92%, “Dose-dependent effect” and “Active”.
